Where “and” joins values, the source holds several entries; their conditions need not be identical. Identical values can stand only once.
How the values were obtained:
Haemonchus contortus = Haemonchus contortus larval mortality; details: 120 h, read-out: activity (percentage of larval mortality)
Method: In Vitro Assay 7: Haemonchus contortus
Solvent: Dimethyl Sulfoxide
Approximately 40 larvae of the red stomach worm (Haemonchus contortus) are transferred into a test tube containing compound solution.
After 5 days the percentage of larval mortality is recorded. 100% efficacy means all larvae are killed, 0% efficacy means no larvae are killed.

[1] = system: Nippostrongylus brasiliensis; assay: Nippostrongylus brasiliensis (NIPOBR) adult worms, acetylcholine esterase readout; details: read-out: activity (reduction of AChE compared to negative control); for inhibition at 1 µg/mL: at 1 μg/ml (1 ppm)
In short: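 Adult worms washed in saline with penicillin/streptomycin/amphotericin B, then incubated in medium with test compound (DMSO) at final 10 μg/ml (10 ppm) or 1 μg/ml (1 ppm). Acetylcholine esterase activity in a medium aliquot served as anthelmintic readout, compared with negative control.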

[2] = system: Dirofilaria immitis microfilariae; assay: Dirofilaria immitis microfilariae (DIROIM L1) motility; details: 72 h, read-out: EC50 (reduction of motility)
[3] = system: Litomosoides sigmodontis third-stage larvae; assay: Litomosoides sigmodontis (LTMOSI L3) larval motility; details: 72 h, read-out: EC50 (reduction of motility)
Method: In Vitro Assay 6: Litomosoides sigmodontis (LTMOSI L3)
10 Litomosoides sigmodontis third-stage larvae, which were freshly isolated from the pleural cavity of an infected rodent, were added to wells of a microtitre plate containing a nutrient medium and the test compound in DMSO. Compounds were tested in concentration-response assay in duplicate. Larvae exposed to DMSO and no test compounds were used as negative controls. Larvae were evaluated after 72 h of incubation with the compound. Efficacy was determined as the reduction of motility in comparison to the negative control. Based on the evaluation of a wide concentration range, concentration-response curves as well as EC50-values were calculated.

Dirofilaria immitis = Dirofilaria immitis (DIROIM L4) larval motility; details: 72 h, read-out: EC50 (reduction of motility)
Cooperia curticei = Cooperia curticei larval mortality; details: 120 h, read-out: activity (percentage of larval mortality)
Method: In Vitro Assay 6: Cooperia curticei
Solvent: Dimethyl Sulfoxide
Approximately 40 nematode larvae (Cooperia curticei) are transferred into a test tube containing the compound solution.
After 5 days percentage of larval mortality is recorded. 100% efficacy means all larvae are killed; 0% efficacy means no larvae are killed.

D. immitis Slo-1 = D. immitis Slo-1 (Dirofilaria immitis, UniProt I0DFK5); assay: D. immitis Slo-1, action at a recombinant CHO cell line (membrane potential, FLIPR); type: cell-based
C. elegans Slo-1a = C. elegans Slo-1a (Caenorhabditis elegans, UniProt Q95V25); details: pE50 (negative decadic logarithm of EC50), CHO cells expressing C. elegans Slo-1a; voltage sensitive dye, 70 mM KCl
Sequence of C. elegans Slo-1a (Q95V25 whole entry): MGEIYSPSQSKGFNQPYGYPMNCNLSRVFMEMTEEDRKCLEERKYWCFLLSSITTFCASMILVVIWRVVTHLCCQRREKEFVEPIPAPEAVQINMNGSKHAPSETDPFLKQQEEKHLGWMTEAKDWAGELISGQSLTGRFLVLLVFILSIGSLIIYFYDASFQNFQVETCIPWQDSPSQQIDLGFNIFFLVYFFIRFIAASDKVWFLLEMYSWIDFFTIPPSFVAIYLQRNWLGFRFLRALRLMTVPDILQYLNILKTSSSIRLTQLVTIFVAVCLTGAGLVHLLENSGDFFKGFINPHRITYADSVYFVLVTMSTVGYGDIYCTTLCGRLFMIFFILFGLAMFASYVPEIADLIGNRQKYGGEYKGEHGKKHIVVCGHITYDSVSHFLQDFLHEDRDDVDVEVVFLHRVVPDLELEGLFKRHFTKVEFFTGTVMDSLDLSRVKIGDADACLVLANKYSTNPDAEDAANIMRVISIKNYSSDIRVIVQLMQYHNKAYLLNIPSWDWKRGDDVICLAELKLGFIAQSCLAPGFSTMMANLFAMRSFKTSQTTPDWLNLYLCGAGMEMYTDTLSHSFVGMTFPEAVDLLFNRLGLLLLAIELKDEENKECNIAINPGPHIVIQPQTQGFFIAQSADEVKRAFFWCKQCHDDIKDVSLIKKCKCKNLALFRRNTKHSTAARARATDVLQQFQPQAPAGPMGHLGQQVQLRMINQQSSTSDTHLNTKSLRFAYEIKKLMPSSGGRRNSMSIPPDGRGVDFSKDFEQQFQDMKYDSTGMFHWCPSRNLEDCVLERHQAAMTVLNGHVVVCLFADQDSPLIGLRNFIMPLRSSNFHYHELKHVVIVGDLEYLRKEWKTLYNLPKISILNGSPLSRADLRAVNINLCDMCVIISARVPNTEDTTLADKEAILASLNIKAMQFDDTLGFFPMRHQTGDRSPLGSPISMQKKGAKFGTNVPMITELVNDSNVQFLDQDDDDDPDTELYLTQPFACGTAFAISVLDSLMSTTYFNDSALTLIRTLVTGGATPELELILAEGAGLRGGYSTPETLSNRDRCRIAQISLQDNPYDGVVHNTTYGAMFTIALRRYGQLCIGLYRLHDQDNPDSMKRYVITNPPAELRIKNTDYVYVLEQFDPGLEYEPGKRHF
Method: Generation of a Stable C. elegans CHO Cell Line
A CHO cell line was obtained from ATCC, code ATCC CRL-9096. […] The transfection solution included 300 μL OptiMEM (Life Technologies, Nr.: 31985), 2 μL (=6 μg) of plasmid DNA containing the C. elegans Slo 1a gene and 9 μL FugeneHD (Promega, Nr.: E2311), and was added to the cells prior to incubation for 48 hours at 37° C., 5% CO2. The transfection medium was exchanged for the selection medium which contains additional G418 (2 mg/ml, Invitrogen, Nr.: 10131) and the cells were seeded into 384 well plates (300 cells/well). After a few weeks, the remaining surviving cells were tested with a voltage sensitive dye (Membrane Potential Assay Kit, Molecular Devices Nr.: R8034) for K+ channel expression. Positive cell clones were purified by the limited dilution technique. For this the clone with the highest and most robust signal in the voltage sensitive dye assay was further subcloned (incubated) in 384 well plates (0.7 cells/well) in order to obtain clonal purity. This generated a final stable CHO cell line expressing the C. elegans Slo-1a.
Cells were cultured at 37° C. and 5% CO2 in MEMalpha with Gutamax I (Invitrogen, Nr.: 32571), supplemented with 10% (v/v) heat inactivated fetal bovine serum (Invitrogen, Nr.: 10500), G418 (1 mg/ml, Invitrogen, Nr.: 10131). Cells were detached using Accutase (Sigma, Nr.: A6964).
Membrane Potential Measurements
Laboratory compound testing was performed on 384-well microtiter plates (MTPs, Greiner, Nr.: 781092). 8000 cells/well were plated onto 384-well MTPs and cultured for 20 to 24 hours at 37° C. and 5% CO2. After removal of the cell culture medium, the cells were washed once with tyrode (150 mM NaCl, 0.3 mM KCl, 2 mM CaCl2, 1 mM MgCl2, 0.8 mM NaH2PO4, 5 mM Glucose, 28 mM Hepes, pH 7.4) and then loaded with the voltage sensitive dye of the Membrane Potential Assay Kit diluted in tyrode for 1 h at room temperature.
After starting the measurement of fluorescence using a FLIPR Tetra (Molecular Devices, Exc. 510-545 nm, Emm. 565-625 nm), test compounds were added followed by the addition of KCl tyrode (final assay concentration: 70 mM KCl, 2 mM CaCl2, 1 mM MgCl2, 0.8 mM NaH2PO4, 5 mM Glucose, 28 mM Hepes, pH 7.4, including the voltage sensitive dye). The measurement was completed after 7 minutes.
The data were evaluated by using the ActivityBase XLfit software (IDBS) for curve fitting and calculation of the half-maximal effective concentration (EC50) and are reported as negative decadic logarithm (pE50).

Sequence of D. immitis Slo-1 (I0DFK5 1-1119): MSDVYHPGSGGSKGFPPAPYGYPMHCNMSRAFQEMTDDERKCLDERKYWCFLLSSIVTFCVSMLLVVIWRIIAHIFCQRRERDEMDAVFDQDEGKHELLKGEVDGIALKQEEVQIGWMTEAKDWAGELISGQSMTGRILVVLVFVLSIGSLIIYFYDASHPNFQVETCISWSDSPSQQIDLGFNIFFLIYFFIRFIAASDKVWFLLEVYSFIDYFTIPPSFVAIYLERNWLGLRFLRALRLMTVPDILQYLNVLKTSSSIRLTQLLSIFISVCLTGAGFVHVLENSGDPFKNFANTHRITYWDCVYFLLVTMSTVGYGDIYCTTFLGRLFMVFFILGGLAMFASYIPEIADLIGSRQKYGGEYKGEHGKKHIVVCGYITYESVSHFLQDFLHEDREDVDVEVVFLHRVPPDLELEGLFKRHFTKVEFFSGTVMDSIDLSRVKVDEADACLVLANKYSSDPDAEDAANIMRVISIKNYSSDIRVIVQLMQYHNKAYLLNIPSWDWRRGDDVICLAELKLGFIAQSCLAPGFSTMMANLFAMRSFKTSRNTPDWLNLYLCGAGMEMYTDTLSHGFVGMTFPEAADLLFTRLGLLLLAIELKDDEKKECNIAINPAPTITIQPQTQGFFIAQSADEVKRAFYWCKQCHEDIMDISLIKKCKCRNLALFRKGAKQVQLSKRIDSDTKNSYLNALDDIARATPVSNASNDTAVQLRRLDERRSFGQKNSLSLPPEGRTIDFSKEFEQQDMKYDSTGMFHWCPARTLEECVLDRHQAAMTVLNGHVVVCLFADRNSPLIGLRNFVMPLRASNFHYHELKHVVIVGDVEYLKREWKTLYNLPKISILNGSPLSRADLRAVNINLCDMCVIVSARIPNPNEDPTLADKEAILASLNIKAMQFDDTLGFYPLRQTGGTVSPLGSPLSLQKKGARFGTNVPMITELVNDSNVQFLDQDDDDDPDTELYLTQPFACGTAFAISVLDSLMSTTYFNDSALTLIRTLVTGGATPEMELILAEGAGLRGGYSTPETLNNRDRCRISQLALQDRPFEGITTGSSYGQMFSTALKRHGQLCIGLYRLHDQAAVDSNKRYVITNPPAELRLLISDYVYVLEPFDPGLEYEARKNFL

| Structure (SMILES) | mortality at 20 ppm (Haemonchus contortus) | inhibition at 1 µg/mL [1] | inhibition at 10 µg/mL ([1]; at 10 μg/ml (10 ppm)) | EC50 [2] | EC50 [3] | EC50 (Dirofilaria immitis) | mortality at 4 ppm (Cooperia curticei) | mortality at 20 ppm (Cooperia curticei) | EC50 (D. immitis Slo-1) | EC50 (C. elegans Slo-1a) |
| --- | --- | --- | --- | --- | --- | --- | --- | --- | --- | --- |
| O=C(N[C@H]1CCOc2ccccc21)c1cnc2c(-c3cc(F)cc(F)c3F)nccc2c1N1CCOCC1 [Example T1-5, N-[(4S)-3,4-dihydro-2H-1-benzopyran-4-yl]-4-(morpholin-4-yl)-8-(2,3,5-trifluorophenyl)-1,7-naphthyridine-3-carboxamide] | 80% | > 80% | > 80% | < 0.1 µg/mL | < 0.1 µg/mL | < 0.1 µg/mL | 100% | 100% | 31.6 to 316 nM | 3.16 to 31.6 nM |
| COc1c(C(=O)N[C@H]2CCOc3ccccc32)nnc2c(-c3cccc(Cl)c3Cl)cccc12 [Example T5-7, 8-(2,3-Dichlorophenyl)-N-[(4S)-3,4-dihydro-2H-chromen-4-yl]-4-methoxycinnoline-3-carboxamide] | 90% | > 80% | – | < 0.1 µg/mL | < 0.1 µg/mL | < 0.1 µg/mL | 100% | 100% | 31.6 to 316 nM | < 3.16 nM |
| CN(C)c1c(C(=O)N[C@H]2CCOc3ccccc32)cnc2c(-c3cc(Cl)cc(Cl)c3)ccnc12 [Example T3-1, 8-(3,5-Dichlorophenyl)-N-[(4S)-3,4-dihydro-2H-chromen-4-yl]-4-(dimethylamino)-1,5-naphthyridine-3-carboxamide] | 100% | > 80% | – | < 0.1 µg/mL | < 0.1 µg/mL | < 0.1 µg/mL | 100% | 100% | 3.16 to 31.6 nM | 3.16 to 31.6 nM and < 3.16 nM |

— US11485733B2, “Azaquinoline derivatives” (BAYER ANIMAL HEALTH GMBH, priority 2017, dated 2022)
